Here are results for 44 compounds from patent publication US10335401B2, “Non-aromatic heterocyclic derivative having MGAT2 inhibitory activity” (Shionogi & Co., Ltd., priority 2015, dated 2019).

SMILES strings stand for the structures.

This assay deals with recombinant human MGAT2 (Homo sapiens (Human), UniProt Q3SYC2). The assay can be described thus: Measurement of human MGAT2 inhibitory activity. The settings on record: recombinant human MGAT2 membrane fraction (Sf-9); 2-Oleoylglycerol and Oleoyl-CoA substrates; 1 hour at room temperature; Diolein detected by RapidFire Q-TOF MS. Type of assay: biochemical. From the text: A full-length human MGAT2 gene to which a Flag-tag had been added at the N-terminal was inserted into pFastBac (from Invitrogen). A recombinant baculovirus was produced in accordance with the protocol for a Bac-to-Bac baculovirus expression system (produced by Invitrogen), and Sf-9 cells were infected therewith. The cells were collected and sonicated, and then the membrane fraction was collected through centrifugation.
recombinant human MGAT2, sequence (Q3SYC2 whole entry): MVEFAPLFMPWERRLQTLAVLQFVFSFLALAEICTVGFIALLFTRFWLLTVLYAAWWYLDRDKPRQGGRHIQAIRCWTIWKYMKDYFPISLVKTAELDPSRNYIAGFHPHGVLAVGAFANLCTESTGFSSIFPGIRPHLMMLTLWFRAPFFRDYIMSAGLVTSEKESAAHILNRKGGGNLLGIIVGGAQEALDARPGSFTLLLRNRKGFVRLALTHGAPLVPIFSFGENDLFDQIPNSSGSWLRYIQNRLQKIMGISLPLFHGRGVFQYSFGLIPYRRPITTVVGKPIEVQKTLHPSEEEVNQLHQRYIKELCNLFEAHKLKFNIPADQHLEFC
Solutions of the compounds of the present invention in DMSO were each aliquoted into 0.2-μL portions in a 384-well polystyrene microplate produced by Corning Incorporated, and 5 μL of an enzyme solution prepared with an assay buffer (100 mmol/L phosphate buffer (pH 7.4) containing 2 mmol/L DTT) and 5 μL of a substrate solution (100 mmol/L phosphate buffer (pH 7.4), 30 μmol/L 2-Oleoylglycerol, 10 μmol/L Oleoyl-CoA) were added thereto, and the resultant was stirred and centrifuged, and incubated in a moist chamber at room temperature for 1 hour. […] Diolein as a reaction product (P) of 2-Oleoylglycerol as the substrate and an ammonium adduct ion of the IS were detected, and the peak intensity ratio, P/IS, was calculated from the peak heights to evaluate the inhibitory activity. […] The inhibitory activity was calculated from the formula below with TIBCO Spotfire (produced by TIBCO Software Inc.): Inhibitory activity (%)=[1−{Sample−Control(−)}/{Control(+)−Control(−))}]*100 where Sample indicates a peak intensity ratio: P/IS, when the compound of the present invention was added.
Turning to `CC(C)c1ccc(C2=C(CNC(=O)CC(=O)O)C(=O)N[C@@](c3ccc(OCCCC(F)(F)F)cc3)(C(F)(F)F)C2)nc1` [Compound I-55], the half-maximal inhibitory concentration (IC50) came to 160 nM.
On to `CC(=O)NCC1=C(c2ccc(OC(F)F)cn2)C[C@](c2ccc(OCCCC(F)(F)F)cc2)(C(F)(F)F)NC1=O` [Compound I-56], for which the IC50 turned out to be 17 nM.
Regarding `CS(=O)(=O)CC(=O)NCC1=C(c2ccc(OC(F)F)cn2)C[C@](c2ccc(OCCCC(F)(F)F)cc2)(C(F)(F)F)NC1=O` [Compound I-57], the IC50 was determined as 0.62 nM.
As to `CC(=O)NCC1=C(c2ccc(C(F)F)cn2)C[C@](c2ccc(OCCCC(F)(F)F)cc2)(C(F)(F)F)NC1=O` [Compound I-58], the half-maximal inhibitory concentration (IC50) came to 34 nM.
For `CS(=O)(=O)CC(=O)NCC1=C(c2ccc(C(F)F)cn2)C[C@](c2ccc(OCCCC(F)(F)F)cc2)(C(F)(F)F)NC1=O` [Compound I-59], the half-maximal inhibitory concentration (IC50) was found to be 1.1 nM.
Take `CC(C)c1ccc(C2=C(CNC(=O)CO)C(=O)N[C@@](c3ccc(OCCCC(F)(F)F)cc3)(C(F)(F)F)C2)nc1` [Compound I-60]: the IC50 worked out at 27 nM.
With `CC(C)c1ccc(C2=C(CNC(=O)CN(C)C)C(=O)N[C@@](c3ccc(OCCCC(F)(F)F)cc3)(C(F)(F)F)C2)nc1` [Compound I-61] the figure was 27 nM.
`O=C(CO)NCC1=C(c2ccc(OC(F)F)cn2)C[C@](c2ccc(OCCCC(F)(F)F)cc2)(C(F)(F)F)NC1=O` [Compound I-62]: the IC50 was 59 nM.
With `O=C(CO)NCC1=C(c2ccc(C(F)F)cn2)C[C@](c2ccc(OCCCC(F)(F)F)cc2)(C(F)(F)F)NC1=O` [Compound I-63] the figure was 110 nM; with `CC(C)(C)OC(=O)N1CC(C(=O)NCC2=C(c3ccc(C(F)F)cn3)C[C@](c3ccc(OCCCC(F)(F)F)cc3)(C(F)(F)F)NC2=O)C1` [Compound I-64], 14 nM; with `O=C1N[C@@](c2ccc(OCCCC(F)(F)F)cc2)(C(F)(F)F)CC(c2ccc(C(F)F)cn2)=C1CNC(=O)C1CNC1` [Compound I-65], 280 nM.
As for `CC1(C(=O)NCC2=C(c3ccc(C(F)F)cn3)C[C@](c3ccc(OCCCC(F)(F)F)cc3)(C(F)(F)F)NC2=O)CNC1` [Compound I-66], the half-maximal inhibitory concentration (IC50) turned out to be 410 nM.
`O=C1N[C@@](c2ccc(OCCCC(F)(F)F)cc2)(C(F)(F)F)CC(c2ccc(C(F)F)cn2)=C1CNC(=O)C1(F)CNC1` [Compound I-67]: the 50% inhibitory concentration (IC50) amounted to 40 nM.
`CC(=O)NCC1=C(c2ncc(C3CC3)s2)C[C@](c2ccc(OCCCC(F)(F)F)cc2)(C(F)(F)F)NC1=O` [Compound I-68]: the IC50 was determined as 440 nM.
As to `CS(=O)(=O)CC(=O)NCC1=C(c2ncc(C3CC3)s2)C[C@](c2ccc(OCCCC(F)(F)F)cc2)(C(F)(F)F)NC1=O` [Compound I-69], the IC50 is 43 nM.
Consider `CS(=O)(=O)CC(=O)NCC1=C(c2ccc(Br)cn2)C[C@](c2ccc(OCCCC(F)(F)F)cc2)(C(F)(F)F)NC1=O` [Compound I-70], for which the IC50 amounted to 5.3 nM.
The same measure for `CS(=O)(=O)CC(=O)NCC1=C(c2ccc(Br)cn2)C[C@@](c2ccc(OCCCC(F)(F)F)cc2)(C(F)(F)F)NC1=O` [Compound I-71]: 940 nM.
With `C=C(C)c1ccc(C2=C(CNC(=O)CS(C)(=O)=O)C(=O)N[C@@](c3ccc(OCCCC(F)(F)F)cc3)(C(F)(F)F)C2)nc1` [Compound I-72] the figure was 1 nM; with `C=C(C)c1ccc(C2=C(CNC(=O)CS(C)(=O)=O)C(=O)N[C@](c3ccc(OCCCC(F)(F)F)cc3)(C(F)(F)F)C2)nc1` [Compound I-73], 77 nM.
Regarding `CS(=O)(=O)CC(=O)NCC1=C(c2ccc(C(F)F)cn2)C[C@](c2ccc(C(F)(F)F)cc2)(C(F)(F)F)NC1=O` [Compound I-75], the 50% inhibitory concentration (IC50) was determined as 78 nM.
The same measure for `CS(=O)(=O)CC(=O)NCC1=C(c2ccc(OC(F)F)cn2)C[C@](c2ccc(Br)cc2)(C(F)(F)F)NC1=O` [Compound I-78]: 25 nM.
Turning to `CC(C)(C(=O)NCC1=C(c2ccc(C(F)F)cn2)C[C@](c2ccc(OCCCC(F)(F)F)cc2)(C(F)(F)F)NC1=O)S(C)(=O)=O` [Compound I-80], the IC50 stood at 990 nM.
`CS(=O)(=O)C1(C(=O)NCC2=C(c3ccc(C(F)F)cn3)C[C@](c3ccc(OCCCC(F)(F)F)cc3)(C(F)(F)F)NC2=O)CC1` [Compound I-81]: the IC50 amounted to 140 nM.
As for `CC(C(=O)NCC1=C(c2ccc(C(F)F)cn2)C[C@](c2ccc(OCCCC(F)(F)F)cc2)(C(F)(F)F)NC1=O)S(C)(=O)=O` (some centres unmarked) [Compound I-83], the IC50 is 22 nM.
Take `CC(C(=O)NCC1=C(c2ccc(C(F)F)cn2)C[C@](c2ccc(OCCCC(F)(F)F)cc2)(C(F)(F)F)NC1=O)S(C)(=O)=O` (some centres unmarked) [Compound I-85]: the half-inhibitory concentration (IC50) came out at 24 nM.
Turning to `CS(=O)(=O)CC(=O)NCC1=C(c2ccc(C(F)F)cn2)C[C@](c2ccc(CCC(F)(F)F)cc2)(C(F)(F)F)NC1=O` [Compound I-86], the 50% inhibitory concentration (IC50) stood at 1.9 nM.
For `CS(=O)(=O)CC(=O)NCC1=C(c2ccc(C(F)F)cn2)C[C@](c2ccc(C3CC3)cc2)(C(F)(F)F)NC1=O` [Compound I-88], the concentration for half-maximal inhibition (IC50) was determined as 21 nM.
As for `CS(=O)(=O)CC(=O)NCC1=C(c2ccc(C(F)F)cn2)C[C@](c2ccc(OC(F)(F)F)cc2)(C(F)(F)F)NC1=O` [Compound I-90], the half-maximal inhibitory concentration (IC50) stood at 27 nM.
Turning to `CS(=O)(=O)CC(=O)NCC1=C(c2ccc(C(F)F)cn2)C[C@](c2ccc(OCC(F)(F)F)cc2)(C(F)(F)F)NC1=O` [Compound I-91], the half-maximal inhibitory concentration (IC50) stood at 6.8 nM.
For the compound `CS(=O)(=O)CC(=O)NCC1=C(c2ccc(C(F)F)cn2)C[C@](c2ccc(Br)cc2)(C(F)(F)F)NC1=O` [Compound I-94], the IC50 was 59 nM.
With `CS(=O)(=O)CC(=O)NCC1=C(c2ccc(OC(F)F)cn2)C[C@](c2ccc(C3CC3)cc2)(C(F)(F)F)NC1=O` [Compound I-95] the figure was 17 nM.
Take `CS(=O)(=O)CC(=O)NCC1=C(c2ccc(C(F)F)cn2)C[C@](c2ccc(CN3CCOCC3)cc2)(C(F)(F)F)NC1=O` [Compound I-97]: the concentration for half-maximal inhibition (IC50) worked out at 39 nM.
For `Cn1cc(-c2ccc([C@]3(C(F)(F)F)CC(c4ccc(OC(F)F)cn4)=C(CNC(=O)CS(C)(=O)=O)C(=O)N3)cc2)cn1` [Compound I-98], the IC50 was determined as 70 nM.
For `CS(=O)(=O)CC(=O)NCC1=C(c2ccc(OC(F)F)cn2)C[C@](c2ccc(-c3ccccc3)cc2)(C(F)(F)F)NC1=O` [Compound I-99], the IC50 is 26 nM.
The same measure for `Cn1ccc(-c2ccc([C@]3(C(F)(F)F)CC(c4ccc(OC(F)F)cn4)=C(CNC(=O)CS(C)(=O)=O)C(=O)N3)cc2)cc1=O` [Compound I-100]: 370 nM; for `CS(=O)(=O)CC(=O)NCC1=C(c2ccc(OC(F)F)cn2)C[C@](c2ccc(C3=CCOCC3)cc2)(C(F)(F)F)NC1=O` [Compound I-101]: 42 nM.
Turning to `COC/C=C/c1ccc([C@]2(C(F)(F)F)CC(c3ccc(OC(F)F)cn3)=C(CNC(=O)CS(C)(=O)=O)C(=O)N2)cc1` [Compound I-102], the half-inhibitory concentration (IC50) was 21 nM.
Consider `CS(=O)(=O)CC(=O)NCC1=C(c2ccc(OC(F)F)cn2)C[C@](c2ccc(OCCCC(F)(F)F)cn2)(C(F)(F)F)NC1=O` [Compound I-103], for which the IC50 is 6.6 nM.
For the compound `CS(=O)(=O)CC(=O)NCC1=C(c2ccc(OC(F)F)cn2)C[C@](c2ccc(OCC(F)F)cc2)(C(F)(F)F)NC1=O` [Compound I-105], the IC50 stood at 9.2 nM.
For the compound `CS(=O)(=O)CC(=O)NCC1=C(c2ccc(OC(F)F)cn2)C[C@](c2ccc(C(F)(F)F)cc2)(C(F)(F)F)NC1=O` [Compound I-108], the IC50 worked out at 46 nM.
Consider `CS(=O)(=O)CC(=O)NCC1=C(c2ccc(C(F)F)cn2)CC(c2ccc(Br)cc2F)(C(F)(F)F)NC1=O` (centres unmarked) [Compound I-111], for which the concentration for half-maximal inhibition (IC50) was 33 nM.
On to `O=C(CC(F)(F)F)NCC1=C(c2ccc(C(F)F)cn2)C[C@](c2ccc(OCCCC(F)(F)F)cc2)(C(F)(F)F)NC1=O` [Compound I-112], for which the half-inhibitory concentration (IC50) was 3.8 nM.
With `CS(=O)(=O)CC(=O)NCC1=C(c2ccc(OC(F)F)cn2)C[C@](c2ccc(OCC(F)(F)F)cc2)(C(F)(F)F)NC1=O` [Compound I-114] the figure was 4.1 nM; with `CS(=O)(=O)CC(=O)NCC1=C(c2ccc(C(F)F)cn2)C[C@](c2ccccc2)(C(F)(F)F)NC1=O` [Compound I-115], 110 nM.

As a reminder, the IC50 is the midpoint of a concentration-inhibition curve.
